From ChEMBL document CHEMBL1201862, “PubChem BioAssay data set” (2004)
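48-hour exposure; five concentrations; linearly interpolated endpoints. GI50 is the concentration that inhibits growth by half.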 Calls of active or inactive are those of the source. Rule as the data show it: active = GI50 up to about 1.1 µM and inactive = higher. Residues, ends and D or L forms follow the SMILES beside them. *: point of attachment. Cbz = O=C(OCc1ccccc1)*

Columns and labels:
Assay in all cases: NCI-60 cell line screen, 48 h
HCT-15 = test system: HCT-15
MOLT-4 = test system: MOLT-4
PC-3 = test system: PC-3
SK-MEL-28 = test system: SK-MEL-28
SW-620 = test system: SW-620
K562 = test system: K562
MDA-MB-435 = test system: MDA-MB-435
MDA-N = test system: MDA-N
COLO 205 = test system: COLO 205
CCRF-CEM = test system: CCRF-CEM
DU-145 = test system: DU-145
NCI-H460 = test system: NCI-H460
Malme-3M = test system: Malme-3M
HOP-92 = test system: HOP-92
MDA-MB-231 = test system: MDA-MB-231

| Compound | GI50 (HCT-15) | GI50 (MOLT-4) | GI50 (PC-3) | GI50 (SK-MEL-28) | GI50 (SW-620) | GI50 (K562) | GI50 (MDA-MB-435) | GI50 (MDA-N) | GI50 (COLO 205) | GI50 (CCRF-CEM) | GI50 (DU-145) | GI50 (NCI-H460) | GI50 (Malme-3M) | GI50 (HOP-92) | GI50 (MDA-MB-231) |
| --- | --- | --- | --- | --- | --- | --- | --- | --- | --- | --- | --- | --- | --- | --- | --- |
| CCOC(=O)C(NC(=O)CC)(Nc1cc(C)on1)C(F)(F)F (stereo unspecified) | > 100 µM | > 100 µM (inactive) | > 100 µM (inactive) | > 100 µM (inactive) | > 100 µM (inactive) | > 100 µM (inactive) | > 100 µM (inactive) | > 100 µM (inactive) | > 100 µM (inactive) | > 100 µM (inactive) |  |  |  |  |  |
| O=C1Nc2ccccc2C1Cc1ccccc1 (stereo unspecified) | > 100 µM | > 100 µM (inactive) | > 100 µM (inactive) | > 100 µM (inactive) | > 100 µM (inactive) | > 100 µM (inactive) | > 100 µM (inactive) | > 100 µM (inactive) | > 100 µM (inactive) | > 100 µM (inactive) | > 100 µM (inactive) | > 100 µM (inactive) | > 100 µM (inactive) | > 100 µM (inactive) |  |
| CC1C2(C)OC(=N)C(C#N)(C(C)O2)C1(C#N)C#N (stereo unspecified) | 15.5 µM | 36 µM (inactive) | 31.8 µM (inactive) | 27.4 µM (inactive) | 16.6 µM (inactive) | 34.9 µM (inactive) |  | 18.6 µM (inactive) | 12.1 µM (inactive) | 16 µM (inactive) | 25.7 µM (inactive) | 19.6 µM (inactive) | 25 µM (inactive) | 16.9 µM (inactive) | 19.9 µM (inactive) |
| Cn1c(=O)[nH]c2[nH]c3ccccc3c2c1=O | > 100 µM | > 100 µM (inactive) |  | > 100 µM (inactive) | > 100 µM (inactive) | > 100 µM (inactive) | > 100 µM (inactive) | > 100 µM (inactive) | > 100 µM (inactive) | > 100 µM (inactive) | > 100 µM (inactive) |  | > 100 µM (inactive) | > 100 µM (inactive) | > 100 µM (inactive) |
| COc1ccc2oc(=O)c(-c3csc(C)n3)cc2c1 | > 100 µM | > 100 µM (inactive) | > 100 µM (inactive) | > 100 µM (inactive) | > 100 µM (inactive) | > 100 µM (inactive) | > 100 µM (inactive) |  | > 100 µM (inactive) | > 100 µM (inactive) | > 100 µM (inactive) | > 100 µM (inactive) |  | 19.5 µM (inactive) | 24.7 µM (inactive) |
| CCOC(=O)/C=C/C1=C(Br)[C@@]2(C)CC[C@@H]3c4ccc(O)cc4CC[C@H]3[C@@H]2C1 | 12.1 µM | 12.5 µM (inactive) | 15.2 µM (inactive) | 16.4 µM (inactive) | 13.7 µM (inactive) | 9.98 µM (inactive) | 15.2 µM (inactive) | 13.8 µM (inactive) | 17.8 µM (inactive) | 7.83 µM (inactive) | 6.87 µM (inactive) | 14.7 µM (inactive) | 12 µM (inactive) | 11.6 µM (inactive) |  |
| CCN(CC)CCNc1c(OC)cc(C)c2sc3ccccc3c(=O)c12 | 4.06 µM | 2.31 µM (inactive) | 7.71 µM (inactive) | 1.92 µM (inactive) | 5.35 µM (inactive) | 1.71 µM (inactive) | 3.08 µM (inactive) |  | 2.06 µM (inactive) |  | 11.9 µM (inactive) | 4.5 µM (inactive) | 2.13 µM (inactive) | 16.9 µM (inactive) | 2.74 µM (inactive) |
| CC(Cc1ccccc1)N(C)Cc1nc(C2CCC([N+](=O)[O-])O2)no1 (stereo unspecified) | 2.17 µM | 19.5 µM (inactive) |  | 11.9 µM (inactive) | 3.1 µM (inactive) |  | 6.82 µM (inactive) |  | 3.72 µM (inactive) | 12.2 µM (inactive) | 12.4 µM (inactive) |  | 11.9 µM (inactive) | 21.3 µM (inactive) | 2.47 µM (inactive) |
| COc1c(C)c(OC)c2c(c1O)[C@@H]1[C@@H]3Cc4c(OC)c(C)c(OC)c(O)c4[C@H](CNC(=O)c4ccc5ccccc5n4)N3[C@@H](C#N)[C@H](C2)N1C | 0.0101 µM | 0.00016 µM (active) | 0.00234 µM (active) | 0.00251 µM (active) | 0.00033 µM (active) | 0.000537 µM (active) | 0.00116 µM (active) | 0.000807 µM (active) | 0.000891 µM (active) |  | 0.00206 µM (active) | 0.00224 µM (active) | 0.000162 µM (active) | 0.000363 µM (active) | 0.00159 µM (active) |
| Cc1cccc(-n2c(C)nc3ccc(NC4OC(CO)C(O)C(O)C4O)cc3c2=O)c1 (stereo unspecified) | > 100 µM | > 100 µM (inactive) | > 100 µM (inactive) | > 100 µM (inactive) | > 100 µM (inactive) | > 100 µM (inactive) | > 100 µM (inactive) | > 100 µM (inactive) | > 100 µM (inactive) |  | > 100 µM (inactive) | > 100 µM (inactive) | > 100 µM (inactive) |  | > 100 µM (inactive) |
| CCOc1ccc2ccccc2c1NC1=NCCO1 | > 100 µM | 27.5 µM (inactive) |  | > 100 µM (inactive) | 46.1 µM (inactive) | 19.8 µM (inactive) | 25.8 µM (inactive) |  | 36.6 µM (inactive) | 39.1 µM (inactive) | > 100 µM (inactive) | 12.7 µM (inactive) | 39.5 µM (inactive) | 15.3 µM (inactive) | > 100 µM (inactive) |
| CCOC(=O)C(C(N)=O)C1=Nc2cc([N+](=O)[O-])ccc2N/C1=C\C(=O)c1ccccc1 (stereo unspecified) | 12.6 µM |  | 15.5 µM (inactive) | 25.6 µM (inactive) | 15.6 µM (inactive) | 3.82 µM (inactive) | 15.8 µM (inactive) | 18.7 µM (inactive) | 17.9 µM (inactive) |  | 13.5 µM (inactive) | 13.4 µM (inactive) | 19.9 µM (inactive) | 15.4 µM (inactive) | 13.3 µM (inactive) |
| CO[C@]12C[C@@H](CNC(=O)c3cc(Br)c[nH]3)O[C@H]1NC(=O)N2 | > 100 µM | > 100 µM (inactive) | > 100 µM (inactive) | > 100 µM (inactive) | > 100 µM (inactive) | > 100 µM (inactive) | > 100 µM (inactive) |  | > 100 µM (inactive) | > 100 µM (inactive) | > 100 µM (inactive) | > 100 µM (inactive) | > 100 µM (inactive) | > 100 µM (inactive) | > 100 µM (inactive) |
| N=C(N)c1ccc(/N=N/c2c(O)ccc3cc(O)ccc23)cc1 | > 100 µM | > 100 µM (inactive) | > 100 µM (inactive) | > 100 µM (inactive) | > 100 µM (inactive) | > 100 µM (inactive) | > 100 µM (inactive) |  | > 100 µM (inactive) | > 100 µM (inactive) |  | > 100 µM (inactive) | 56.2 µM (inactive) | > 100 µM (inactive) | > 100 µM (inactive) |
| CC(NC(=O)C(NC(=O)OCc1ccccc1)C(C)C)C(=O)NCC(=O)O (stereo not drawn) (Cbz-Val-Ala-Gly-OH; configuration not given here) | > 100 µM | > 100 µM (inactive) | > 100 µM (inactive) | > 100 µM (inactive) | > 100 µM (inactive) | > 100 µM (inactive) | > 100 µM (inactive) | > 100 µM (inactive) | > 100 µM (inactive) |  | > 100 µM (inactive) | > 100 µM (inactive) | > 100 µM (inactive) | > 100 µM (inactive) | > 100 µM (inactive) |
